Data taken from US10844023B2 (Washington University, priority 2017, dated 2020).
Entries after “also recorded” stand apart in the source; their conditions may differ.

Tested on: Mfn2 null MEFs
Experiment: Mitochondrial elongation (aspect ratio) fusogenicity assay
Type: cell-based, mouse
Set-up: % long compare to B: dose or concentration left out as unconfirmed
Conditions: for % long compare to B: mitochondrial elongation relative to Cpd B (B01 = 100), compound overnight as printed (FIG. 48); for % long compare to B / Aspect ratio (MEAN ± SEM): Mfn2 null MEFs; for Aspect ratio (MEAN ± SEM): overnight, treatment with 1 μM compound (footnote); for Fusogenicity Rank: rank order of aspect ratio among 44 soluble library compounds

SMILES	% long compare to B	also measured
O=C(NCCSCc1ccsc1)C1CC2CCCC(C1)C2=O (stereo not shown) [B11, 9-oxo-N-(2-{[(thiophen-3-yl)methyl]sulfanyl}-ethyl)bicyclo[3.3.1]-nonane-3-carboxamide]	23%	
Cc1ccc(-n2c(SC(C)C(=O)Nc3ccnn3C(C)C)nnc2N2CCOCC2)cc1 (stereo not shown) [C01, 2-{[4-(4-methylphenyl)-5-(morpholin-4-yl)-4H-1,2,4-triazol-3-yl]sulfanyl}-N-[1-(propan-2-yl)-1H-pyrazol-5-yl]propanamide]	16%	
CCCc1noc(C(C)Sc2nc3cc(C)ccc3[nH]2)n1 (stereo not shown) [C02, 5-methyl-2-{[1-(3-propyl-1,2,4-oxadiazol-5-yl)ethyl]sulfanyl}-1H-1,3-benzodiazole]	14%	
COc1ccc(SC(C)C(=O)Nc2cc[nH]n2)cc1 (stereo not shown) [C03, 2-[(4-methoxyphenyl)sulfa-nyl]-N-(1H-pyrazol-3-yl)propanamide]	10%	
CCC(C)C1N=C2c3ccccc3N=C(SC(C)C(=O)Nc3cc(OC)cc(OC)c3)N2C1=O (stereo not shown) [C04, 2-{[2-(butan-2-yl)-3-oxo-2H,3H-imidazo[1,2-c]quinazolin-5-yl]sulfanyl}-N-(3,5-dimethoxyphenyl)pro-panamide]	−1%	
O=C(CSCCc1ccccn1)Nc1ccc(Cl)c(Cl)c1 [C06, N-(3,4-dichlorophenyl)-2-{[2-(pyridin-2-yl)ethyl]sulfanyl}-acetamide]	−8%	
O=C(CSCc1ccc(F)cc1)N1CCc2c([nH]c3ccccc23)C1c1ccc(Cl)cc1 (stereo not shown) [C07, 1-[1-(4-chlorophenyl)-1H,2H,3H,4H,9H-pyrido[3.4-b]indol-2-yl]-2-{[(4-fluorophenyl)methyl]sulfanyl}ethan-1-one]	29%	
Cc1ccc(C(C)C)c(OCCCSCc2nc3ccccc3[nH]2)c1 [C09, 2-[({3-[5-methyl-2-(propan-2-yl)phenoxy]propyl}-sulfanyl)methyl]-1H-1,3-benzodiazole]	−5%	
CC(/N=N/C(=N)SC1CC(=O)N(c2cccc(C(=O)O)c2)C1=O)c1ccccc1 (stereo not shown) [C10, 3-(2,5-dioxo-3-{[(E)-N-[(1-phenylethyl)imino]car-bamimidoyl]sul-fanyl}pyrrolidin-1-yl)benzoic acid]	0%	
Cc1ccc(NC(=O)CC2SC(NC(c3ccc(C(C)C)cc3)c3c(O)[nH]c(=O)[nH]c3=O)=NC2=O)c(C)c1 (stereo not shown) [C11, N-(2,4-dimethylphenyl)-2-(2-{[(6-hydroxy-2,4-dioxo-1,2,3,4-tetrahydropyrimidin-5-yl)[4-(propan-2-yl)phenyl]methyl]am-ino}-4-oxo-4,5-dihydro-1,3-thiazol-5-yl)acetamide]	−4%	
CCOc1ccccc1NC(=O)CSCc1cc(=O)c2ccc(C)c(C)c2[nH]1 [D01, 2-{[(7,8-dimethyl-4-oxo-1,4-dihydroquinolin-2-yl)methyl]sulfanyl}-N-(2-ethoxyphenyl)acetamide]	9%	
Cc1ccc(C(=O)C(C)Sc2nnc3c(=O)n(-c4ccc(C)c(C)c4)ccn23)cc1C (stereo not shown) [D02, 7-(3,4-dimethylphenyl)-3-{[1-(3,4-dimethylphenyl)-1-oxopropan-2-yl]sulfanyl}-7H,8H-[1,2,4]triazolo[4,3-a]pyrazin-8-one]	13%	
O=C(CSCC(=O)N1CCCc2ccccc21)Nc1ccccc1 [D03, 2-{[2-oxo-2-(1,2,3,4-tetrahydroquinolin-1-yl)ethyl]sulfanyl}-N-phenylacetamide]	−17%	
CCOC(=O)c1sc(NC(=O)C(CC)Sc2nnc3c(n2)[nH]c2ccccc23)nc1C (stereo not shown) [D04, ethyl 4-methyl-2-(2-{5H-[1,2,4]triazino[5,6-b]indol-3-ylsulfanyl}butanamido)-1,3-thiazole-5-carboxylate]	24%	
COc1ccc2c(c1)C1(SCCN1C(=O)c1ccccc1C)C(=O)N2Cc1cccc(C(F)(F)F)c1 (stereo not shown) [D05, 5-methoxy-3′-(2-methylbenzoyl)-1-{[3-(trifluoromethyl)-phenyl]methyl}-1,2-dihydrospiro[indole-3,2′-[1,3]thiazolidine]-2-one]	4%	
O=C(NCCSCc1cccc(Cl)c1)C1CCCCn2nnnc21 (stereo not shown) [D07, N-(2-{[(3-chlorophenyl)methyl]-sulfanyl}ethyl)-5H,6H,7H,8H,9H-[1,2,3,4]tetrazolo[1,5-a]azepine-9-carboxamide]	−6%	
COc1ccc(OCc2nnc(SC(C)C(=O)Nc3sc4c(c3C(N)=O)CCC4)n2C)cc1 (stereo not shown) [D8, 2-[2-({5-[(4-methoxyphenoxy)-methyl]-4-methyl-4H-1,2,4-triazol-3-yl}sulfanyl)propana-mido]-4H,5H,6H-cyclopenta[b)thiophene-3-carboxamide]	−1%	
Cc1cc(C)n2nc(C(=O)N3C[C@@H]4CCN(Cc5nccn5C)[C@@H]4C3)cc2n1 [D08, 2-{[(3aS,6aS)-5-{5,7-dimethylpyrazolo[1,5-a]pyrimidine-2-carbonyl}-octahydropyrrolo[3,4-b]pyrrol-1-yl]methyl}-1-methyl-1H-imidazole]	114%	

SMILES	% long compare to B	also measured
O=C1CC(SCCc2nc3ccccc3[nH]2)C(=O)N1c1cccc(F)c1 (stereo not shown) [D09, 3-{[2-(1H-1,3-benzodiazol-2-yl)ethyl]sulfanyl}-1-(3-fluorophenyl)pyrro-lidine-2,5-dione]	73%	
O=C1CC(SCCc2nc3ccccc3[nH]2)C(=O)N1c1cccc(F)c1 (stereo not shown) [D9, 3-{[2-(1H-1,3-benzodiazol-2-yl)ethyl]sulfanyl}-1-(3-fluorophenyl)pyrro-lidine-2,5-dione]		Fusogenic activity (mitochondrial elongation / fusion): failed validation in the secondary screen; also recorded: showed no true fusogenic activity
Cc1ccc(SC2CCN(Cc3cc4n(n3)CCNC4)CC2)cc1 [D10, 4-[(4-methylphenyl)sulfanyl]-1-({4H,5H,6H,7H-pyrazolo[1,5-a]pyrazin-2-yl}methyl)piperidine]	−7%	
Cc1nc[nH]c1CSCCNC(=O)C1CCN(C(=O)C2CCC2)CC1 [D11, 1-cyclobutanecarbonyl-N-(2-{[(4-methyl-1H-imidazol-5-yl)methyl]sulfanyl}-ethyl)piperidine-4-carboxamide]	−8%	
Cc1ccc(N2C[C@@H]3CC[C@H](C2)N(Cc2ccccn2)C3=O)nn1 [D12, (1S,5R)-3-(6-methylpyridazin-3-yl)-6-[(pyridin-2-yl)methyl)-3,6-diazabicyclo[3.2.2] nonan-7-one]	−4%	
CC(C)C1=CC2C(=O)NC(CSCC(=O)NCc3ccccn3)=NC2S1 (stereo not shown) [E02, 2-({[4-oxo-6-(propan-2-yl)-3H,4H,4aH,7aH-thieno[2,3-d]pyrimidin-2-yl]methyl}sulfanyl)-N-[(pyridin-2-yl)methyl]acetamide]	11%	
Cc1nc[nH]c1CSCCn1cnc2cn(C)nc2c1=O [E03, 2-methyl-6-(2-{[(4-methyl-1H-imidazol-5-yl)methyl]sulfanyl}-ethyl)-2H,6H,7H-pyrazolo[4,3-d]pyrimidin-7-one]	−10%	
CCC(C)NC(=O)c1ccccc1NC(=O)C(C)Sc1ccc(C)cc1 (stereo not shown) [E04, N-(butan-2-yl)-2-{2-[(4-methyl-phenyl)sulfanyl]pro-panamido}benzamide]	1%	
O=C(NCCSCc1ccccc1)C1CCCCO1 (stereo not shown) [E05, N-[2-(benzyl-sulfanyl)ethyl]oxane-2-carboxamide]	1%	
Cc1nnc(SCCCNC(=O)c2n[nH]c3c2CN(C)CC3)s1 [E06, 5-methyl-N-{3-[(5-methyl-1,3,4-thiadiazol-2-yl)sulfanyl]propyl}-1H,4H,5H,6H,7H-pyrazolo[4,3-c]pyridine-3-carboxamide]	−3%	
c1ccc(CSCCc2nc(C3CCOC3)no2)cc1 (stereo not shown) [E07, 5-[2-(benzylsulfanyl)ethyl]-3-(oxolan-3-yl)-1,2,4-oxadiazole]	4%	
CC(c1cccc([N+](=O)[O-])c1)N(C)CC(=O)NCCSCc1ccccc1C#N (stereo not shown) [N-(2-{[(2-cyanophenyl)methyl]sulfanyl}ethyl)-2-{methyl[1-(3-nitrophenyl)ethyl]amino}acetamide]		Aspect ratio (MEAN ± SEM): 4.0 ± 0.5; Fusogenicity Rank: 16
Cc1cccc(NC(=O)CSCC(=O)N(Cc2ccc(N(C)C)cc2)C(C)C)c1 [N-{[4-(dimethylamino)phenyl]methyl}-2-({[(3-methylphenyl)carbamoyl]methyl}sulfanyl)-N-(propan-2-yl)acetamide]		Aspect ratio (MEAN ± SEM): 4.6 ± 0.2; Fusogenicity Rank: 12
Cc1cc(C)n2nc(C(=O)N3C[C@@H]4CCN(Cc5nccn5C)[C@@H]4C3)cc2n1 [drawing 198, 2-{[(3aS,6aS)-5-{5,7-dimethylpyrazolo[1,5-a]pyrimidine-2-carbonyl}-octahydropyrrolo[3,4-b]pyrrol-1-yl]methyl}-1-methyl-1H-imidazole]		Aspect ratio (MEAN ± SEM): 9.0 ± 3.1; Fusogenicity Rank: 1
O=C1CC(SCCc2nc3ccccc3[nH]2)C(=O)N1c1cccc(F)c1 (stereo not shown) [drawing 199, 3-{[2-(1H-1,3-benzodiazol-2-yl)ethyl]sulfanyl}-1-(3-fluorophenyl)pyrrolidine-2,5-dione]		Aspect ratio (MEAN ± SEM): 6.9 ± 0.8; Fusogenicity Rank: 3
Cc1ccc(C(C)C)c(OCCCSCc2nc3ccccc3[nH]2)c1 [drawing 200, 2-[({3-[5-methyl-2-(propan-2-yl)phenoxy]propyl}sulfanyl)methyl]-1H-1,3-benzodiazole]		Aspect ratio (MEAN ± SEM): 3.0 ± 0.4; Fusogenicity Rank: 37
COc1ccc(SC(C)C(=O)Nc2cc[nH]n2)cc1 (stereo not shown) [drawing 201, 2-[(4-methoxyphenyl)sulfanyl]-N-(1H-pyrazol-3-yl)propanamide]		Aspect ratio (MEAN ± SEM): 3.8 ± 0.4; Fusogenicity Rank: 22
O=C(CSCc1ccc(F)cc1)N1CCc2c([nH]c3ccccc23)C1c1ccc(Cl)cc1 (stereo not shown) [drawing 202, 1-[1-(4-chlorophenyl)-1H,2H,3H,4H,9H-pyrido[3,4-b]indol-2-yl]-2-{[(4-fluorophenyl)methyl]sulfanyl}ethan-1-one]		Aspect ratio (MEAN ± SEM): 4.7 ± 0.9; Fusogenicity Rank: 11
